Series [1] has as its target T1, panel of 371 human kinases (Homo sapiens, UniProt O14920).
T1 construct: purchased Reaction Biology Corp
In words: Radiolabeled ATP kinase assay, panel of 371 kinases (Table S6). In kind it is biochemical. The following applies: IKKb/IKBKE; 0.1 μM; 10 μM ATP; read-out: % Enzyme Activity (relative to DMSO controls). The source says:
(§1) ; FIG. 38C). […]. Further targeted analyses, such as genetic knock-down or knock-out, may be warranted to parse the role of these additional kinases in our model of neurodegeneration.

Series [2] concerns the target T2, panel of 371 human kinases (Homo sapiens, UniProt P06493).
T2 construct: purchased Reaction Biology Corp
The series is described as above. Format: biochemical. The following applies: 0.1 μM, 10 μM ATP, read-out: % Enzyme Activity (relative to DMSO controls).
From the text: as §1

For series [3], the target named is T3, panel of 371 human kinases (Homo sapiens, UniProt P29376).
T3 construct: purchased Reaction Biology Corp
The series is described as above. In kind it is biochemical. The following applies: TYK1/LTK; 0.1 μM; 10 μM ATP; read-out: % Enzyme Activity (relative to DMSO controls).
From the text: as §1

For series [4], the target named is T4, panel of 371 human kinases (Homo sapiens, UniProt P36888).
T4 construct: purchased Reaction Biology Corp
The series is described as above. Format: biochemical. The following applies: FLT3; 0.1 μM; 10 μM ATP; read-out: % Enzyme Activity (relative to DMSO controls).
From the text: as §1

For series [5], the target named is T5, panel of 371 human kinases (Homo sapiens, UniProt P42681).
T5 construct: purchased Reaction Biology Corp
The description is as above. In kind it is biochemical. The following applies: TXK; 0.1 μM; 10 μM ATP; read-out: % Enzyme Activity (relative to DMSO controls).
From the text: as §1

Series [6] concerns the target T6, panel of 371 human kinases (Homo sapiens, UniProt Q02750).
T6 construct: purchased Reaction Biology Corp
The series is described as above. The following applies: MEK1; 0.1 μM; 10 μM ATP; read-out: % Enzyme Activity (relative to DMSO controls). Format: biochemical.
From the text: as §1

Series [7] has as its target T7, panel of 371 human kinases (Homo sapiens, UniProt Q07912).
T7 construct: purchased Reaction Biology Corp
The description is as above. Format: biochemical. The following applies: ACK1; 0.1 μM; 10 μM ATP; read-out: % Enzyme Activity (relative to DMSO controls).
From the text: as §1

Series [8] addresses T8, panel of 371 human kinases (Homo sapiens, UniProt Q15746).
T8 construct: purchased Reaction Biology Corp
The description is as above. In kind it is biochemical. The following applies: MLCK/MYLK; 0.1 μM; 10 μM ATP; read-out: % Enzyme Activity (relative to DMSO controls).
From the text: as §1

The target in series [9] is T9, panel of 371 human kinases (Homo sapiens, UniProt Q86V86).
T9 construct: purchased Reaction Biology Corp
Described as above. Format: biochemical. The following applies: PIM3; 0.1 μM; 10 μM ATP; read-out: % Enzyme Activity (relative to DMSO controls).
From the text: as §1

Series [10] addresses T10, panel of 371 human kinases (Homo sapiens, UniProt Q96BR1).
T10 construct: purchased Reaction Biology Corp
The series is described as above. In kind it is biochemical. The following applies: SGK3/SGKL; 0.1 μM; 10 μM ATP; read-out: % Enzyme Activity (relative to DMSO controls).
From the text: as §1

Series [11] has as its target T11, panel of 371 human kinases (Homo sapiens, UniProt Q9BYT3).
T11 construct: purchased Reaction Biology Corp
The description is as above. In kind it is biochemical. The following applies: STK33; 0.1 μM; 10 μM ATP; read-out: % Enzyme Activity (relative to DMSO controls).
From the text: as §1

Series [12] deals with T12, panel of 371 human kinases (Homo sapiens, UniProt Q9UKE5).
T12 construct: purchased Reaction Biology Corp
Described as above. The following applies: TNIK; 0.1 μM; 10 μM ATP; read-out: % Enzyme Activity (relative to DMSO controls). In kind it is biochemical.
From the text: as §1

Series [13] has as its target T13, panel of 371 human kinases (Homo sapiens, UniProt Q9UL54).
T13 construct: purchased Reaction Biology Corp
The description is as above. The following applies: TAOK2/TAO1; 0.1 μM; 10 μM ATP; read-out: % Enzyme Activity (relative to DMSO controls). In kind it is biochemical.
From the text: as §1

Series [14] deals with T14, panel of 371 human kinases (Homo sapiens, UniProt Q9Y572).
T14 construct: purchased Reaction Biology Corp
The description is as above. The following applies: RIPK3; 0.1 μM; 10 μM ATP; read-out: % Enzyme Activity (relative to DMSO controls). In kind it is biochemical.
From the text: as §1

Series [15] in a line: Plasma and brain concentration 30 min after IP injection. In kind it is in vivo, mouse. The following applies: male, C57BL6/J, mouse, mice, ip dosing, 30 minutes; for Kp at 30 min: brain/plasma, read-out: B/P. Here is the method: All studies were performed on 6-week old male C57BL6/J mice that were housed in the Columbia University Medical Center facility in a 12h light/dark cycle with access to food and water ad libitum. All animal procedures were approved by the Columbia University IACUC. […] Animals were weighed and injected once intraperitoneally (IP) at the indicated dose (10 or 20 mg/kg). After 30 min, animals were deeply anesthetized with 2.5% Avertin. Whole blood was collected by cardiac puncture in tubes containing 0.5M EDTA as an anticoagulant, and centrifuged for 10 min at 845 rcf at 4° to isolate plasma. Following cardiac puncture, animals were decapitated and brains were dissected and weighed. Brain samples were homogenized with a glass dounce homogenizer in 5 volumes of ddH2O. Brain and plasma samples were snap frozen in liquid nitrogen and stored at −80° C. before further processing.
The plasma samples were transferred to Eppendorf tubes (50 μL per sample) and diluted with acetonitrile (200 μL). The samples were sonicated for 1 minute followed by centrifugation at 16,000 rpm for 10 minutes. The supernatant was transferred to another Eppendorf tube and the solvent evaporated overnight. The samples were reconstituted in a mixture of 40 μL acetonitrile and 10 μL water transferred to a sample vial with insert, and analyzed by LC-MS.
The homogenized brain samples (250 μL) were transferred to Eppendorf tubes and diluted with acetonitrile (750 μL). The samples were sonicated for 1 minute followed by centrifugation at 16,000 rpm for 10 minutes. The supernatant (900 μL) was transferred to another Eppendorf tube and the solvent evaporated overnight. The samples were reconstituted in a mixture of 80 μL acetonitrile and 20 μL water, transferred to a sample vial with insert, and analyzed by LC-MS.
LC-MS analysis was performed on a platform comprising a Thermo Scientific Dionex Ultimate 3000 and a Bruker amaZon SL equipped with an electrospray ionization source controlled by Bruker Hystar 3.2. The compound concentration in each plasma sample was determined using a calibration curve. Chromatographic separation was performed by injecting 10 μL of the sample onto an Agilent Eclipse Plus C18 column (2.1×50 mm, 3.5 μm) maintained at 20° C. The flow rate was maintained at 400 μL/min. The initial flow conditions were 60% solvent A (water containing 0.1% acetic acid) and 40% solvent B (methanol containing 0.1% acetic acid). Solvent B was raised to 60% over 0.25 minutes and to 70% by 6.75 minutes.

Series [16] in a line: Plasma and brain concentration after IV injection (FIG. 13B). Format: in vivo, mouse. The following applies: 10 mg/kg. Here is the method:
Drug concentrations were analyzed by LC-MS.

The source of these data is patent US12227500B2, “Substituted pyrrolo[2,3-b]pyridines for suppressing toxic endoplasmic reticulum stress” (THE TRUSTEES OF COLUMBIA UNIVERSITY IN THE CITY OF NEW YORK, priority 2018, dated 2025).

Values joined by “and” are separate entries in the source; they are usually repeats but may differ in a detail not shown here. Equal values may be shown once. Read-outs that look alike come from different tables or passages of the source.

T2 sequence (P06493 whole entry): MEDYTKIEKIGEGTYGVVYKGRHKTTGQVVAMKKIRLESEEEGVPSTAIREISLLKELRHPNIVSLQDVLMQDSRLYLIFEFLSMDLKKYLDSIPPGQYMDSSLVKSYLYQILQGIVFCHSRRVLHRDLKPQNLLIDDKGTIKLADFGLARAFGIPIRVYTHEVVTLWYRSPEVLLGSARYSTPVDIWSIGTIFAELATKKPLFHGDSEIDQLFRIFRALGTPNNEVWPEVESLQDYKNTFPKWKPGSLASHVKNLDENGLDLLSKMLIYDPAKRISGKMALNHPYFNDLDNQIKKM
T13 sequence (Q9UL54 whole entry): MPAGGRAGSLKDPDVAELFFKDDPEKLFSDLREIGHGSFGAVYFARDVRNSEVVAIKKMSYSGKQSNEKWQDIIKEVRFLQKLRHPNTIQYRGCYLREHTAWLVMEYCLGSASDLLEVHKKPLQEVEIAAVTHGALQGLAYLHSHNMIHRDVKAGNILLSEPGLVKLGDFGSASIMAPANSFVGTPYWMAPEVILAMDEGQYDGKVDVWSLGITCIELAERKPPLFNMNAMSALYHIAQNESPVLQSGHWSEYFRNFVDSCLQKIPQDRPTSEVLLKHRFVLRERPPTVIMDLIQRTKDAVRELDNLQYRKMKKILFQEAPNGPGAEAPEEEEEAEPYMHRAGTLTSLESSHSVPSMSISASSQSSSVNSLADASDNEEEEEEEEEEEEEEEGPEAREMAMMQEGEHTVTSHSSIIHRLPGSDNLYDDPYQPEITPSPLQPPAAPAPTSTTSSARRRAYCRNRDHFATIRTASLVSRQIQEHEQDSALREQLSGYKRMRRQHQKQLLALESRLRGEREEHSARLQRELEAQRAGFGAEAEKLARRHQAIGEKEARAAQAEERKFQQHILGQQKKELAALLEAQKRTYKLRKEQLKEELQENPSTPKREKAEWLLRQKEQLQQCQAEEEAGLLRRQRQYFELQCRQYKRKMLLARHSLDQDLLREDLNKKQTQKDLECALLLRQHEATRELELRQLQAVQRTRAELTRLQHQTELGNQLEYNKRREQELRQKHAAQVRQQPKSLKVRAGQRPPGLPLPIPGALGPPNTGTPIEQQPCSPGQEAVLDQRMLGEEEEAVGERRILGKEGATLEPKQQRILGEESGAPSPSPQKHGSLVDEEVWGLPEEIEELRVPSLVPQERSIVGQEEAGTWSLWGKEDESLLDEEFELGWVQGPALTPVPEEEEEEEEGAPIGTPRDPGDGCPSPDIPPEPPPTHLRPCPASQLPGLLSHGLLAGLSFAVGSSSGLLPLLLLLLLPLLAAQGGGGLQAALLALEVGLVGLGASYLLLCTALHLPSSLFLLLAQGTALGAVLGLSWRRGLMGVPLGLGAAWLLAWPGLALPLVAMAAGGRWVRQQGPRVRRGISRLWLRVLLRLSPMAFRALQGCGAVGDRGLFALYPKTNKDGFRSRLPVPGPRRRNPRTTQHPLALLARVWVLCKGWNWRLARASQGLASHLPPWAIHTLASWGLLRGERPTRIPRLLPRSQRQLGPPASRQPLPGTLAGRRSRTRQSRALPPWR
T8 sequence (Q15746 whole entry): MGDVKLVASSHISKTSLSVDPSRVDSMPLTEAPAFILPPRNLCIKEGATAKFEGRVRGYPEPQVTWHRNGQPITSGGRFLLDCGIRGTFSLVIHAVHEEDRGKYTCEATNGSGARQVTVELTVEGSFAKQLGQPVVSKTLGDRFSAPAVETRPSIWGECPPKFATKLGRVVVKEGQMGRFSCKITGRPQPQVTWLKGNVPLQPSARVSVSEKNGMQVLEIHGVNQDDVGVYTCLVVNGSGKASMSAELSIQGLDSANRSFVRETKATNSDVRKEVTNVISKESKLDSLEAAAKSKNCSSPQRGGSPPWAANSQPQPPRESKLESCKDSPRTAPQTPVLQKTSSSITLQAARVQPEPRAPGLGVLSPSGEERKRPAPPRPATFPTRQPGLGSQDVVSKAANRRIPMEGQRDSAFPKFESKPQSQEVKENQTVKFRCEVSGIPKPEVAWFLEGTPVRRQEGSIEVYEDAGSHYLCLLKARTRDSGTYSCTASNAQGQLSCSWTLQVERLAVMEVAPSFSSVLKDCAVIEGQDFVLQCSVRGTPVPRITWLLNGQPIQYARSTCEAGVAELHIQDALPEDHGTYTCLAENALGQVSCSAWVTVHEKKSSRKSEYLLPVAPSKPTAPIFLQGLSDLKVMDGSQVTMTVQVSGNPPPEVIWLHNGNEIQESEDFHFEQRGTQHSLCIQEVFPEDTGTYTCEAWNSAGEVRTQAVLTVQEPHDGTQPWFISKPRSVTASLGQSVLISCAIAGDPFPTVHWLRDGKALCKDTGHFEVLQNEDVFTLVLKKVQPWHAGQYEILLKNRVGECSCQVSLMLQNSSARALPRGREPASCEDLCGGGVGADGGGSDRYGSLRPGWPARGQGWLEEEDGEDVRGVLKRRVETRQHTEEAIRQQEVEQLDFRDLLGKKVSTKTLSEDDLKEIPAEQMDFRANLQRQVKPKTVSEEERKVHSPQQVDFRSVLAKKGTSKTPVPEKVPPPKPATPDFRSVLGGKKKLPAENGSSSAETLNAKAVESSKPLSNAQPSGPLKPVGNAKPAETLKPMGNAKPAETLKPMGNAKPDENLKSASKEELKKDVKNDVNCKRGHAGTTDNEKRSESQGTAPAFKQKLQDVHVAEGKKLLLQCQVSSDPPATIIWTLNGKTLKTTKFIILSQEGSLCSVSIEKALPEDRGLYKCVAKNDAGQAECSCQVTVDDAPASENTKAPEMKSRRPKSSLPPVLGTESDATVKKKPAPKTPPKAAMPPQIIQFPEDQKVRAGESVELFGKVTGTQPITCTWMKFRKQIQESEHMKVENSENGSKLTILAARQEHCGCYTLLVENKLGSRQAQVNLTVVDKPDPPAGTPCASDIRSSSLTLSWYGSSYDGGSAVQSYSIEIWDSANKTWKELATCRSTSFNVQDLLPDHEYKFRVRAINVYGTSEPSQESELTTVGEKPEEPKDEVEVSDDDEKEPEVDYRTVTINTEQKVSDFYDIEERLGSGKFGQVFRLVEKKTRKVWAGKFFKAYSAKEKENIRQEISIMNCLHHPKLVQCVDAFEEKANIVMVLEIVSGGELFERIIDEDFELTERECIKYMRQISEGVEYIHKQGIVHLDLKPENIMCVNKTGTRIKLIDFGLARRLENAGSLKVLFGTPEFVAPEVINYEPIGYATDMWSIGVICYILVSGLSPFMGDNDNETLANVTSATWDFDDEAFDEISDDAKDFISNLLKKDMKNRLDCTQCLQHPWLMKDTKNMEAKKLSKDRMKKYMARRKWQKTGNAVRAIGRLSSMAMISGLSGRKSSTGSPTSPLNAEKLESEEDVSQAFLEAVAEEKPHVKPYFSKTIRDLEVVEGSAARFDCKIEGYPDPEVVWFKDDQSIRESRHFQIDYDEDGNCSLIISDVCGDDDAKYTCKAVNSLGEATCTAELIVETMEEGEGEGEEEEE
T7 sequence (Q07912 whole entry): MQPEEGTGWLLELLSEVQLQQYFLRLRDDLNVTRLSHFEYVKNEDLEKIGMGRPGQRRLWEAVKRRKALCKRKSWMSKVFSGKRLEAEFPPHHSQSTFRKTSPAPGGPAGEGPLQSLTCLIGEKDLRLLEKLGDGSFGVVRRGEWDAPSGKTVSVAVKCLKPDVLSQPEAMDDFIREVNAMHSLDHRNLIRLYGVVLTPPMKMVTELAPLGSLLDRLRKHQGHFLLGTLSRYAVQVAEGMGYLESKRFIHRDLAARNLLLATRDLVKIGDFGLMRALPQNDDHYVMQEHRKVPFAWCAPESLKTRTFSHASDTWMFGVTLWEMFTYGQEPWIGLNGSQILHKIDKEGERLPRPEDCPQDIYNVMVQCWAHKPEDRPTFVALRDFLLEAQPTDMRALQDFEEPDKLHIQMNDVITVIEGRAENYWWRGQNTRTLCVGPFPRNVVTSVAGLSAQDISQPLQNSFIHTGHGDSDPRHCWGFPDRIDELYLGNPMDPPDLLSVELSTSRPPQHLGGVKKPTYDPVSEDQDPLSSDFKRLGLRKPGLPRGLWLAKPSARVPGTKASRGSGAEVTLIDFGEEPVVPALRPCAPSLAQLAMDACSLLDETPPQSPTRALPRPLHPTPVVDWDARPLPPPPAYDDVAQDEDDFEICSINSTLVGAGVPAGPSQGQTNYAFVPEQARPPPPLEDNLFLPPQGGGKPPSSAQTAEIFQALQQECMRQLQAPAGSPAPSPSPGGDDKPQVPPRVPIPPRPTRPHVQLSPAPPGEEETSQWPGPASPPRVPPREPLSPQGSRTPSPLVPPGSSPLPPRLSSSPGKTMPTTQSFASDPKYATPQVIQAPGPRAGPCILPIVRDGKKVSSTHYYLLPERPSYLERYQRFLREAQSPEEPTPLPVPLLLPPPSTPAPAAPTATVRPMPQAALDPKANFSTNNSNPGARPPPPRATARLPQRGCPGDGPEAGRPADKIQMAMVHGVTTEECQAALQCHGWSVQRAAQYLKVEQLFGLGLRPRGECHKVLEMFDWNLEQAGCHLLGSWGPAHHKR

In the case of `CN1CCN(Cc2ccc(-c3cnc4[nH]cc(-c5ccc6[nH]ccc6c5)c4c3)cc2)CC1` [Compound 1, 3-(1H-Indol-5-yl)-5-(4-((4-methylpiperazin-1-yl)methyl)phenyl)-1H-pyrrolo[2,3-b]pyridine, reference compound], the remaining activity at 0.1 µM came to 81.3% in [1]; 95.1% in [2] (CDK1/cyclin A); 96.5% in [2] (CDK1/cyclin B); 98.7% in series [2] (CDK1/cyclin E); 105% in series [3]; 22.3% in [4]. Also, the remaining activity at 0.1 µM in series [5] amounted to 85.3%; in [6], 111%; in [7], 87.3%; in series [8], 93.4%; in series [9], 92.9%; in series [10] it was 74.3%. Moreover, the remaining activity at 0.1 µM in series [11] was found to be 72.6%; in [12], 5.84%; in [13], 104%; in series [14], 100%. Further, the Kp at 30 min in [15] (10 mg/kg) stood at 0.3; in series [15] (20 mg/kg) it was 0.4. Moreover, the concentration at 30 min in series [15] (10 mg/kg, read-out: brain) is 1010 ng/g and 1.89 µM; in [15] (10 mg/kg, read-out: plasma), 3210 ng/mL and 6 µM; in series [15] (20 mg/kg, read-out: brain) it was 1410 ng/g and 2.64 µM; in [15] (20 mg/kg, read-out: plasma), 3480 ng/mL and 6.5 µM. For the same compound, the “level in plasma and brain 1 h after injection (LC-MS)” value in series [16] was “below the limits of detection”.

In the case of `OCCN1CCN(Cc2ccc(-c3cnc4[nH]cc(-c5cccc(Cl)c5)c4c3)cc2)CC1` [Compound 12k, 2-(4-(4-(3-(3-Chlorophenyl)-1H-pyrrolo[2,3-b]pyridin-5-yl)benzyl)piperazin-1-yl)ethan-1-ol], the remaining activity at 0.1 µM in series [1] is 84.1%; in series [2] (CDK1/cyclin A), 79.9%; in series [2] (CDK1/cyclin B), 84.9%; in [2] (CDK1/cyclin E) it was 91.1%; in [3], 117%; in series [4], 29.4%. The remaining activity at 0.1 µM in series [5] is 87%; in series [6] it was 92.7%; in series [7], 93.6%; in series [8], 99.1%; in [9], 106%; in [10], 88.2%. The remaining activity at 0.1 µM was 88.6% in series [11], -0.01% in [12], 103% in series [13] and 99.4% in series [14]. Further, the values for the Kp at 30 min in series [15] (10 mg/kg) and in [15] (20 mg/kg) were 3.3 and 4, respectively. Further, the concentration at 30 min in series [15] (10 mg/kg, read-out: brain) is 1230 ng/g and 2.74 µM; in series [15] (10 mg/kg, read-out: plasma), < 375 ng/mL and < 840 nM; in [15] (20 mg/kg, read-out: brain), 5180 ng/g and 11.6 µM; in series [15] (20 mg/kg, read-out: plasma), 1290 ng/mL and 2.88 µM. The “level in plasma and brain 1 h after injection (LC-MS)” value in series [16] is “still detectable”.
